Laboratory results as given in patent publication US8796289B2 (AbbVie Inc., priority 2011, dated 2014).

target: GST-tagged-Wee1 kinase (Homo sapiens, UniProt P30291); test: Wee1 time-resolved fluorescence equilibrium binding assay (displacement of Oregon Green-labeled ATP-competitive kinase probe)
Experimental: Wee1 kinase was assayed using a time-resolved fluorescence equilibrium binding assay monitoring displacement of a rapidly reversible Oregon Green-labeled ATP-competitive kinase probe (N-(2-(2-(2-(4-(4-(5-chloro-4-(2-(1-hydroxycyclobutyl)thiazol-5-yl)-1H-pyrrolo[2,3-b]pyridin-2-yl)phenyl)piperazin-1-yl)ethoxy)ethoxy)ethyl)-2′,7′-difluoro-3′,6′-dihydroxy-3-oxo-3H-spiro[isobenzofuran-1,9′-xanthene]-5-carboxamide) by competitive Wee1 inhibitors.

Chain of GST-tagged-Wee1 kinase (P30291 whole entry): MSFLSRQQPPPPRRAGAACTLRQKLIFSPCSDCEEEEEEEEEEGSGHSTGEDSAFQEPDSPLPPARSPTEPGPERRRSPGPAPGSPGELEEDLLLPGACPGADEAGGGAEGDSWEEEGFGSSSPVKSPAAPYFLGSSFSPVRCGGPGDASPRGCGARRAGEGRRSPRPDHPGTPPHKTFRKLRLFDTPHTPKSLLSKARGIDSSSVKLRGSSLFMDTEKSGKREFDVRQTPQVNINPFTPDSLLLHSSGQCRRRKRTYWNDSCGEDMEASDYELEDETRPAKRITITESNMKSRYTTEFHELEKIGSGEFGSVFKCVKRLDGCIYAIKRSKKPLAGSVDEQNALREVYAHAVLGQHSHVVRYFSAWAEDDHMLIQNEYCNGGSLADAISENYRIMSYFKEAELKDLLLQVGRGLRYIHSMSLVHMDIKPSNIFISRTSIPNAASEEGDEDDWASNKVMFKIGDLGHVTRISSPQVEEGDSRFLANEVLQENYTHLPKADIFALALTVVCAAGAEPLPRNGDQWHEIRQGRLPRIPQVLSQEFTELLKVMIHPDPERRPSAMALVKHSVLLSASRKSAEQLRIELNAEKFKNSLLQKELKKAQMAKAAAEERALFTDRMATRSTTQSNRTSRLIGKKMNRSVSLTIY

Row | Ki | SMILES
1 | 0.47 nM | CN1CCN(c2ccc(Nc3ncc4c(=O)n(-c5c(Cl)cncc5Cl)nc(-c5ccncc5)c4n3)cc2)CC1 [Example 358, 6-(3,5-dichloropyridin-4-yl)-2-{[4-(4-methylpiperazin-1-yl)phenyl]amino}-8-(pyridin-4-yl)pyrimido[4,5-d]pyridazin-5(6H)-one]
2 | 5 nM | CN1Cc2cc(Nc3ncc4c(=O)n(-c5c(Cl)cncc5Cl)nc(-c5cn(C)cn5)c4n3)ccc2C2(CC2)C1 [Example 359, 6-(3,5-dichloropyridin-4-yl)-2-[(2′-methyl-2′,3′-dihydro-1′H-spiro[cyclopropane-1,4′-isoquinolin]-7′-yl)amino]-8-(1-methyl-1H-imidazol-4-yl)pyrimido[4,5-d]pyridazin-5(6H)-one]
3 | 2.4 nM | CN1CCN(c2ccc(Nc3ncc4c(=O)n(-c5c(Cl)cncc5Cl)nc(-c5cncs5)c4n3)cc2)CC1 [Example 360, 6-(3,5-dichloropyridin-4-yl)-2-{[4-(4-methylpiperazin-1-yl)phenyl]amino}-8-(1,3-thiazol-5-yl)pyrimido[4,5-d]pyridazin-5(6H)-one]
4 | 4.4 nM | CN1CCN(c2ccc(Nc3ncc4c(=O)n(-c5c(Cl)cncc5Cl)nc(-c5cn(C)cn5)c4n3)cc2)CC1 [Example 361, 6-(3,5-dichloropyridin-4-yl)-8-(1-methyl-1H-imidazol-4-yl)-2-{[4-(4-methylpiperazin-1-yl)phenyl]amino}pyrimido[4,5-d]pyridazin-5(6H)-one]
5 | 1.8 nM | CN1CCN(c2ccc(Nc3ncc4c(=O)n(-c5c(Cl)cncc5Cl)nc(-c5ccccn5)c4n3)cc2)CC1 [Example 362, 6-(3,5-dichloropyridin-4-yl)-2-{[4-(4-methylpiperazin-1-yl)phenyl]amino}-8-(pyridin-2-yl)pyrimido[4,5-d]pyridazin-5(6H)-one]
6 | 40 nM | COc1cc(N2CCC(N3CCN(C)CC3)CC2)ccc1Nc1ncc2c(=O)n(-c3c(Cl)cccc3Cl)nc(C)c2n1 [Example 363, 6-(2,6-dichlorophenyl)-2-({2-methoxy-4-[4-(4-methylpiperazin-1-yl)piperidin-1-yl]phenyl}amino)-8-methylpyrimido[4,5-d]pyridazin-5(6H)-one]
7 | 0.61 nM | Cc1nn(-c2c(Cl)cccc2Cl)c(=O)c2cnc(Nc3ccc4c(c3)CN(C)CC4(C)C)nc12 [Example 364, 6-(2,6-dichlorophenyl)-8-methyl-2-[(2,4,4-trimethyl-1,2,3,4-tetrahydroisoquinolin-7-yl)amino]pyrimido[4,5-d]pyridazin-5(6H)-one]
8 | 2.9 nM | Cc1nn(-c2ncccc2Cl)c(=O)c2cnc(Nc3ccc4c(c3)CN(C)CC4(C)C)nc12 [Example 365, 6-(3-chloropyridin-2-yl)-8-methyl-2-[(2,4,4-trimethyl-1,2,3,4-tetrahydroisoquinolin-7-yl)amino]pyrimido[4,5-d]pyridazin-5(6H)-one]
9 | 0.53 nM | Cc1nn(-c2c(F)cccc2Cl)c(=O)c2cnc(Nc3ccc4c(c3)CC(N(C)C)C4)nc12 (stereo not drawn) [Example 366, 6-(2-chloro-6-fluorophenyl)-2-{[2-(dimethylamino)-2,3-dihydro-1H-inden-5-yl]amino}-8-methylpyrimido[4,5-d]pyridazin-5(6H)-one]
10 | 3.7 nM | Cc1nn(-c2ncccc2Cl)c(=O)c2cnc(Nc3ccc4c(c3)CC(N(C)C)C4)nc12 (stereo not drawn) [Example 367, 6-(3-chloropyridin-2-yl)-2-{[2-(dimethylamino)-2,3-dihydro-1H-inden-5-yl]amino}-8-methylpyrimido[4,5-d]pyridazin-5(6H)-one]
11 | 0.54 nM | Cc1cc(Nc2ncc3c(=O)n(-c4c(F)cccc4Cl)nc(C)c3n2)ccc1N1CCCN(C)CC1 [Example 368, 6-(2-chloro-6-fluorophenyl)-8-methyl-2-(3-methyl-4-(4-methyl-1,4-diazepan-1-yl)phenylamino)pyrimido[4,5-d]pyridazin-5(6H)-one]
12 | 1.8 nM | Cc1cc(Nc2ncc3c(=O)n(-c4ncccc4Cl)nc(C)c3n2)ccc1N1CCCN(C)CC1 [Example 369, 6-(3-chloropyridin-2-yl)-8-methyl-2-(3-methyl-4-(4-methyl-1,4-diazepan-1-yl)phenylamino)pyridazino[4,5-d]pyrimidin-5(6H)-one]
